Patent publication US8680111B2 (Pfizer Inc., priority 2012, dated 2014)

Columns and labels:
[1] = target: T1, human recombinant L1196M ALK kinase domain (amino acids 1093-1411) (Homo sapiens, UniProt Q9UM73, L1196M); assay: L1196M mutant ALK enzyme assay (microfluidic mobility shift); assay type: biochemical; settings: ATP 60 μM, 0.5 nM enzyme, competitive inhibition fit; read-out: L1196M ALK enzyme assay (Ki)
T1 construct: ALK kinase domain (amino acids 1093-1411); made in house

[2] = target: T2, WT EML4-ALK (NIH-3T3 EML4-ALK wt v1 cells) (Homo sapiens, UniProt Q9UM73); assay: Cellular phospho-ALK (Tyr1604) ELISA assay for WT EML4-ALK; assay type: cell-based; settings: 1 hour, read-out: ELISA assay for WT EML4-ALK (IC50)
T2 construct: expressed in transfected cells; the other entry of the earlier key: EML4 (Q9HC35, Echinoderm microtubule-associated protein-like 4)

[3] = target: T3, human recombinant wild-type ALK kinase domain (amino acids 1093-1411) (Homo sapiens, UniProt Q9UM73); assay: Wild-type ALK enzyme assay (microfluidic mobility shift); assay type: biochemical; settings: ATP 60 μM, competitive inhibition fit, read-out: WT ALK enzyme assay (Ki)
T3 construct: ALK kinase domain (amino acids 1093-1411); made in house
Procedure: The reactions were incubated for 1 h at room temperature, stopped by the addition of 0.1 M EDTA, pH 8, and the extent of reactions (˜15-20% conversion with no inhibitor) was determined after electrophoretic separation of the fluorescently labeled peptide substrate and phosphorylated product on an LabChip EZ Reader II (Caliper Life Sciences, Hopkinton, Mass.).

[4] = target: T4, L1196M EML4-ALK (NIH-3T3 EML4-ALK v1 L1196M cells) (Homo sapiens, UniProt Q9UM73, L1196M); assay: Cellular phospho-ALK (Tyr1604) ELISA assay for L1196M EML4-ALK; assay type: cell-based; settings: NIH-3T3 EML4-ALK v1 L1196M cells, 1 hour, phospho-ALK (Tyr1604); read-out: ELISA assay for L1196M EML4-ALK (IC50)
T4 construct: expressed in transfected cells; the other entry of the earlier key: EML4 (Q9HC35, Echinoderm microtubule-associated protein-like 4)

Row | SMILES | Ki [1] [nM] | IC50 [2] [nM] | Ki [3] [nM] | IC50 [4] [nM]
1 | COc1nn(C)c2c1-c1cnc(N)c(n1)OCc1cc(F)ccc1C(=O)N(C)C2C (single isomer, unassigned) [Example 122, 7-amino-12-fluoro-3-methoxy-1,16,17-trimethyl-16,17-dihydro-1H-8,4-(azeno)pyrazolo[4,3-h][2,5,11]benzoxadiazacyclotetradecin-15(10H)-one] | 0.7 | 9.27 | 0.27 | 52.3
2 | COc1nn(C)c2c1-c1cnc(N)c(n1)OCc1cc(F)ccc1C(=O)N(C)C2C (single isomer, unassigned) [Example 123, 7-amino-12-fluoro-3-methoxy-1,16,17-trimethyl-16,17-dihydro-1H-8,4-(azeno)pyrazolo[4,3-h][2,5,11]benzoxadiazacyclotetradecin-15(10H)-one] | 333 | 4790 | 205 | > 10000
3 | CC1c2nn(C)c(C#N)c2-c2cnc(N)c(n2)OCc2cc(F)ccc2C(=O)N1C (single isomer, unassigned) [Example 79, 7-amino-12-fluoro-2,16,17-trimethyl-15-oxo-10,15,16,17-tetrahydro-2H-8,4-(azeno)pyrazolo[4,3-h][2,5,11]benzoxadiazacyclotetradecine-3-carbonitrile] | 2.9 | 42.8 | 1.18 | 180
4 | COc1nn(C)c2c1-c1cnc(N)c(c1)OC(C)c1cccnc1C(=O)N(C)C2 (single isomer, unassigned) [Example 65, 7-amino-3-methoxy-1,10,16-trimethyl-16,17-dihydro-1H-8,4-(metheno)-pyrazolo[4,3-g]pyrido[2,3-l][1,4,10]oxadiazacyclotetradecin-15(10H)-one] | 9.8 | 9.36 | 0.88 | 313
5 | CCc1onc2c1-c1cnc(N)c(n1)O[C@H](C)c1cc(F)ccc1C(=O)N(C)C2 [Example 48, (10R)-7-amino-3-ethyl-12-fluoro-10,16-dimethyl-16,17-dihydro-8,4-(azeno)[1,2]oxazolo[4,3-h][2,5,11]benzoxadiazacyclotetradecin-15(10H)-one] | 1.2 | 6.75 | 0.2 | 68.9
6 | Cc1n[nH]c2c1-c1cnc(N)c(c1)OCc1cc(F)ccc1OCCC2 [Example 38, 12-fluoro-3-methyl-1,16,17,18-tetrahydro-10H-8,4-(metheno)pyrazolo[3,4-e][1,12,9]benzodioxazacyclopentadecin-7-amine] | 5.7 | 12 | 0.61 | 201
7 | COc1nccc2c1-c1cnc(N)c(c1)O[C@H](C)c1cc(F)ccc1C(=O)N(C)C2 [Example 34, (11R)-8-amino-13-fluoro-4-methoxy-11,17-dimethyl-17,18-dihydro-9,5-(metheno)pyrido[3,4-h][2,5,11]benzoxadiazacyclotetradecin-16(11H)-one] | 15 | 36.1 | 0.56 | 890
8 | COc1cnc2cc1-c1cnc(N)c(c1)O[C@H](C)c1cc(F)ccc1C(=O)N(C)CC2 [Example 116, (1R)-4-amino-19-fluoro-9-methoxy-1,15-dimethyl-14,15-dihydro-1H-3,7:8,12-di(metheno)-2,5,11,15-benzoxatriazacyclooctadecin-16(13H)-one] | > 3000 | > 10000 | > 1500 | > 10000
9 | C[C@H]1Oc2nc(cnc2N)-c2c(nn(CC(F)F)c2C#N)CN(C)C(=O)c2ccc(F)cc21 [Example 91, (10R)-7-amino-2-(2,2-difluoroethyl)-12-fluoro-10,16-dimethyl-15-oxo-10,15,16,17-tetrahydro-2H-8,4-(azeno)pyrazolo[4,3-h][2,5,11]benzoxadiazacyclotetradecine-3-carbonitrile] | 0.315 | 0.68 | 0.177 | 5.88
10 | COc1nn(C)c2c1-c1cnc(N)c(c1)OC(C1CC1)c1cc(F)ccc1C(=O)N(C)C2 (single isomer, unassigned) [Example 26, 7-amino-10-cyclopropyl-12-fluoro-3-methoxy-1,16-dimethyl-16,17-dihydro-1H-8,4-(metheno)pyrazolo[4,3-h][2,5,11]benzoxadiazacyclotetradecin-15(10H)-one] | 15 | 50.5 | 3.3 | 511
11 | CC1Cc2cc(cnc2N)-c2c(nn(C)c2C#N)CN(C)C(=O)c2ccc(F)cc21 (single isomer, unassigned) [Example 64, 7-amino-12-fluoro-2,10,16-trimethyl-15-oxo-2,9,10,15,16,17-hexahydro-8,4-(metheno)pyrazolo[3,4-d][2,8]benzodiazacyclotetradecine-3-carbonitrile] | 33.3 | 407 | 34.4 | 1190

Compounds with a lower Ki [1], results first:

Row | Ki [1] [nM] | IC50 [2] [nM] | Ki [3] [nM] | IC50 [4] [nM] | SMILES
12 | 0.13 | 1.95 | 0.12 | 8.7 | CC1Cc2cc(cnc2N)-c2c(nn(C)c2C#N)CN(C)C(=O)c2ccc(F)cc21 (single isomer, unassigned) [Example 63, 7-amino-12-fluoro-2,10,16-trimethyl-15-oxo-2,9,10,15,16,17-hexahydro-8,4-(metheno)pyrazolo[3,4-d][2,8]benzodiazacyclotetradecine-3-carbonitrile]
13 | 0.09 | 0.96 | < 0.08 | 8.18 | C[C@H]1Oc2nc(cnc2N)-c2c(C#N)nn(C)c2CN(C)C(=O)c2ccc(F)cc21 [Example 115, (10R)-7-amino-12-fluoro-1,10,16-trimethyl-15-oxo-10,15,16,17-tetrahydro-1H-8,4-(azeno)pyrazolo[4,3-h][2,5,11]benzoxadiazacyclotetradecine-3-carbonitrile]
14 | < 0.1 | 0.841 | < 0.2 | 5.36 | CC1Oc2nc(cnc2N)-c2c(nn(C)c2C#N)CN(C)C(=O)c2ccc(F)cc21 (single isomer, unassigned) [Example 32, 7-amino-12-fluoro-2,10,16-trimethyl-15-oxo-10,15,16,17-tetrahydro-2H-8,4-(azeno)pyrazolo[4,3-h][2,5,11]benzoxadiazacyclotetradecine-3-carbonitrile]
15 | 0.13 | 0.55 | 0.07 | 6.72 | CN1Cc2nn(C)c(C#N)c2-c2cnc(N)c(c2)OC(CF)c2cc(F)ccc2C1=O (single isomer, unassigned) [Example 85, 7-amino-12-fluoro-10-(fluoromethyl)-2,16-dimethyl-15-oxo-10,15,16,17-tetrahydro-2H-8,4-(metheno)pyrazolo[4,3-h][2,5,11]benzoxadiazacyclotetradecine-3-carbonitrile]
16 | 0.21 | 0.47 | 0.23 | 3.66 | CC(C)n1nc2c(c1C#N)-c1cnc(N)c(n1)O[C@H](C)c1cc(F)ccc1C(=O)N(C)C2 [Example 92, (10R)-7-amino-12-fluoro-10,16-dimethyl-15-oxo-2-(propan-2-yl)-10,15,16,17-tetrahydro-2H-8,4-(azeno)pyrazolo[4,3-h][2,5,11]benzoxadiazacyclotetradecine-3-carbonitrile]
